Data from US20240132484A1, “BROAD SPECTRUM ANTIVIRAL COMPOUNDS TARGETING THE SKI COMPLEX” (priority 2020, published 2024).

Test system: Influenza virus
Test: organism not typed
Format: cell-based, influenza A virus
Conditions: for Avg PFU/ml: average of first and second experiment; for Influenza virus titer, 10 μM / Influenza virus titer, 50 μM: upper part of table (FIG. 5 data); for Influenza virus titer, 10 μM / Influenza virus titer, 50 μM / Flu titer (pfu/ml): plaque assay; for Flu titer (pfu/ml): A549 cells

SMILES	first experiment (10 μM screen) [PFU/ml]	second experiment (10 μM screen) [PFU/ml]	Avg PFU/ml (10 μM screen) [PFU/ml]	Influenza virus titer, 10 μM [PFU/virus/ml]	first experiment PFU/ml (50 μM screen) [PFU/ml]	second experiment PFU/ml (50 μM screen) [PFU/ml]	Avg PFU/ml (50 μM screen) [PFU/ml]	Influenza virus titer, 50 μM [PFU/virus/ml]	Flu titer (pfu/ml) (1 μM compound)	Flu titer (pfu/ml) (10 μM compound)	Flu titer (pfu/ml) (50 μM compound)
COCCCNCc1ccc(OC)cc1OCC(O)CN1CCN(C)CC1 (centres unmarked) [Compound 18-11]	100000	39000	69500	100000	160000	31000	95500	160000	–	–	–
COc1ccc(CNCC(F)(F)F)c(OCC(O)CN2CCN(C)CC2)c1 (centres unmarked) [Compound 18-12]	30000	28000	29000	30000	90000	26000	58000	90000	–	–	–
COc1ccc(CNCCCn2cccn2)c(OCC(O)CN2CCN(C)CC2)c1 (centres unmarked) [Compound 18-13]	40000	20000	30000	40000	80000	110000	95000	80000	–	–	–
COc1ccc(CNCCCSC)c(OCC(O)CN2CCCCCCC2)c1 (centres unmarked) [Compound 18-14]	44000	12000	28000	4400	80000	1100	40550	80000	–	–	–
COc1ccc(CNCCCn2ccnc2)c(OCC(O)CN2CCN(C)CC2)c1 (centres unmarked) [Compound 18-15]	16000	8000	12000	36000	70000	1000	35500	30000	–	–	–
COc1ccc(CNCCCSC)c(OCC(O)CN2CCN(C)CC2)c1 (centres unmarked) [Compound 18-16]	210000	18000	114000	21000	30000	2300	16150	90000	–	–	–
COc1ccc(CNCCc2ccccc2F)c(OCC(O)CN2CCN(C)CC2)c1 (centres unmarked) [Compound 18-lead, 1-[2-({[2-(2-fluorophenyl)ethyl]amino}methyl)-5-methoxyphenoxy]-3-(4-methyl-1-piperazinyl)-2-propanol]	–	–	–	2000	–	–	–	1400	–	–	–
CCc1ccc(OC(C)c2nnc(SCC(=O)Nc3nc(-c4ccccc4)c(C)s3)n2C)cc1 (centres unmarked) [Compound 7493781, 2-({5-[1-(4-ethylphenoxy)ethyl]-4-methyl-4H-1,2,4-triazol-3-yl}thio)-N-(5-methyl-4-phenyl-1,3-thiazol-2-yl)acetamide]	–	–	–	–	–	–	–	–	75000	98000	53000
COc1ccc(NC(=O)c2ccccc2OCC(=O)NC2CCCCC2)c([N+](=O)[O-])c1 [Compound 7900806, 2-[2-(cyclohexylamino)-2-oxoethoxy]-N-(4-methoxy-2-nitrophenyl)benzamide]	–	–	–	–	–	–	–	–	77000	60000	54000
CCCCC(=O)Nc1cccc(NC(=O)COc2ccc(C3CCCCC3)cc2)c1 [Compound 7973169, N-(3-{[2-(4-cyclohexylphenoxy)acetyl]amino}phenyl)pentanamide]	–	–	–	–	–	–	–	–	101000	66000	110000
CCN1CCN(CC(O)COc2cccc(CN(C)Cc3ccccn3)c2)CC1 (centres unmarked) [Compound 10306628, 1-(4-ethyl-1-piperazinyl)-3-(3-{[methyl(2-pyridinylmethyl)amino]methyl}phenoxy)-2-propanol]	–	–	–	–	–	–	–	–	70000	85000	42000
CC#CC(=O)NCc1nc(-c2ccccc2NC(=O)CCOc2ccccc2)oc1C [Compound 17295424, N-[(5-methyl-2-{2-[(3-phenoxypropanoyl)amino]phenyl}-1,3-oxazol-4-yl)methyl]-2-butynamide]	–	–	–	–	–	–	–	–	44000	68000	64000
